Results as given in the NIST ThermoML archive (doi:10.1016/j.fluid.2017.03.021).
Numbers after ± are expanded uncertainties.

Columns and labels:
[1] = molar heat capacity at constant pressure; settings: 101.33 kPa, Liquid, DSC
[2] = 101.33 kPa, Liquid; for speed of sound: Sing-around technique in a fixed-path interferometer; for mass density: Vibrating tube method; for viscosity: Falling or rolling sphere viscometry

CCCCn1cc[n+](C(CC)CC)c1.O=S(=O)([N-]S(=O)(=O)C(F)(F)F)C(F)(F)F
Settings | mass density, [2] [kg/m3] | molar heat capacity at constant pressure, [1] [J/K/mol] | speed of sound, [2] [m/s] | viscosity, [2] [mPa·s]
287.15 K | 1329.4 ± 9.6 | – | 1238.8 ± 5 | –
289.15 K | 1327.6 ± 9.6 | – | 1233.8 ± 5 | –
291.15 K | 1325.8 ± 9.6 | – | 1228.9 ± 5 | –
293.15 K | 1324 ± 9.6 | – | 1224.1 ± 5 | 159.5 ± 9.4
294.15 K | – | 692.9 ± 27 | – | 148.8 ± 8.6
295.15 K | 1322.2 ± 9.5 | 694.28 ± 27 | 1219.3 ± 5 | –
296.15 K | – | 695.14 ± 27 | – | –
297.15 K | 1320.4 ± 9.5 | 695.85 ± 27 | 1214.5 ± 5 | –
298.15 K | – | 696.61 ± 27 | – | 118.2 ± 6.4
299.15 K | 1318.6 ± 9.5 | 697.52 ± 27 | 1209.8 ± 5 | –
300.15 K | – | 698.18 ± 27 | – | –
301.15 K | 1316.8 ± 9.5 | 698.85 ± 27 | 1205.1 ± 5 | –
302.15 K | – | 699.65 ± 27 | – | –
303.15 K | 1315 ± 9.4 | 700.37 ± 27 | 1200.4 ± 5 | 89.55 ± 4.5
304.15 K | – | 701.22 ± 27 | – | –
305.15 K | 1313.2 ± 9.4 | 701.89 ± 27 | 1195.8 ± 5 | –
306.15 K | – | 702.56 ± 27 | – | –
307.15 K | 1311.5 ± 9.4 | 703.46 ± 27 | 1191.2 ± 5 | –
308.15 K | – | 704.22 ± 27 | – | –
309.15 K | 1309.7 ± 9.4 | 704.93 ± 27 | 1186.7 ± 5 | –
310.15 K | – | 705.84 ± 27 | – | –
311.15 K | 1307.9 ± 9.3 | 706.6 ± 27 | 1182.1 ± 5 | –
312.15 K | – | 707.21 ± 27 | – | –
313.15 K | 1306.2 ± 9.3 | 707.88 ± 27 | 1177.6 ± 5 | 54.83 ± 2.6
314.15 K | – | 708.69 ± 27 | – | –
315.15 K | 1304.4 ± 9.3 | 709.45 ± 27 | 1173.1 ± 5 | –
316.15 K | – | 710.35 ± 28 | – | –
317.15 K | 1302.6 ± 9.3 | 711.16 ± 28 | 1168.6 ± 5 | –
318.15 K | – | 711.87 ± 28 | – | –
319.15 K | 1300.9 ± 9.2 | 712.97 ± 28 | 1164.2 ± 5 | –
320.15 K | – | 713.78 ± 28 | – | –
321.15 K | 1299.1 ± 9.2 | 714.58 ± 28 | 1159.8 ± 5 | –
322.15 K | – | 715.35 ± 28 | – | –
323.15 K | 1297.4 ± 9.2 | 716.3 ± 28 | 1155.4 ± 5 | 35.98 ± 1.7
324.15 K | – | 717.1 ± 28 | – | –
325.15 K | 1295.7 ± 9.2 | 718.2 ± 28 | 1151 ± 5 | –
326.15 K | – | 718.67 ± 28 | – | –
327.15 K | 1293.9 ± 9.1 | 719.58 ± 28 | 1146.6 ± 5 | –
328.15 K | – | 720.2 ± 28 | – | –
329.15 K | 1292.2 ± 9.1 | 721.15 ± 28 | 1142.3 ± 5 | –
330.15 K | – | 721.72 ± 28 | – | –
331.15 K | 1290.5 ± 9.1 | 722.48 ± 28 | 1137.9 ± 5 | –
332.15 K | – | 723.24 ± 28 | – | –
333.15 K | 1288.7 ± 9.1 | 723.9 ± 28 | 1133.6 ± 5 | 25.07 ± 1.2
334.15 K | – | 724.81 ± 28 | – | –
335.15 K | 1287 ± 9 | 725.43 ± 28 | 1129.3 ± 5 | –
336.15 K | – | 726.23 ± 28 | – | –
337.15 K | 1285.3 ± 9 | 726.9 ± 28 | 1125 ± 5 | –
338.15 K | – | 727.47 ± 28 | – | –
339.15 K | 1283.6 ± 9 | 728.09 ± 28 | 1120.8 ± 5 | –
340.15 K | – | 729.04 ± 28 | – | –
341.15 K | 1281.8 ± 9 | 729.42 ± 28 | 1116.6 ± 5 | –
342.15 K | – | 730.13 ± 28 | – | –
343.15 K | 1280.1 ± 8.9 | 731.13 ± 28 | 1112.4 ± 5 | 18.26 ± 0.87
344.15 K | – | 731.94 ± 28 | – | –
345.15 K | – | 732.61 ± 28 | – | –
346.15 K | – | 733.37 ± 28 | – | –
347.15 K | – | 733.89 ± 28 | – | –
348.15 K | – | 734.79 ± 28 | – | –
353.15 K | – | – | – | 13.84 ± 0.66
